According to US12077503B2, “Substituted cyclic amides and their use as herbicides” (FMC CORPORATION, priority 2015, dated 2024):

What was measured:
Assay type in all cases: in vivo
[1] = test system: Galium (catchweed bedstraw, Galium aparine); experiment: Test A postemergence; conditions: Galium, post-emergence, 240 h
Procedure, shortened: (§1)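 Each rating is a visual injury score from 0 to 100 given about 10 d after treatment, judged against untreated controls kept alongside in the greenhouse. In loam soil–sand blend, seeds got a preemergence directed soil spray, while postemergence plants were 2 to 10 cm tall at spraying.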

corn (Zea mays) = experiment: Test A postemergence; conditions: Zea mays, post-emergence, 240 h
Procedure, shortened: as §1

[2] = test system: ryegrass, Italian (Italian ryegrass, Lolium multiflorum); experiment: Test A postemergence; conditions: Lolium multiflorum, post-emergence, 240 h
Procedure, shortened: as §1

[3] = test system: blackgrass (Alopecurus myosuroides); experiment: Test A postemergence; conditions: Alopecurus myosuroides, post-emergence, 240 h
Procedure, shortened: as §1

[4] = test system: wheat (Triticum aestivum); experiment: Test A postemergence; conditions: Triticum aestivum, post-emergence, 240 h
Procedure, shortened: as §1

[5] = test system: giant foxtail (Setaria faberii); experiment: Test A postemergence; conditions: Setaria faberi, post-emergence, 240 h
Procedure, shortened: as §1

Kochia (Kochia scoparia) [6] = experiment: Test A postemergence; conditions: Bassia scoparia, post-emergence, 240 h
Procedure, shortened: as §1

[7] = test system: ragweed (common ragweed, Ambrosia elatior); experiment: Test A postemergence; conditions: Ambrosia artemisiifolia, post-emergence, 240 h
Procedure, shortened: as §1

[8] = test system: pigweed (Amaranthus retroflexus); experiment: Test A postemergence; conditions: Amaranthus retroflexus, post-emergence, 240 h
Procedure, shortened: as §1

[9] = test system: barnyardgrass (Echinochloa crus-galli); experiment: Test A postemergence; conditions: Echinochloa crus-galli, post-emergence, 240 h
Procedure, shortened: as §1

[10] = test system: ducksalad (Heteranthera limosa); experiment: Test B flooded paddy test; conditions: Heteranthera limosa, 250 g ai/ha, Flood; 0 to 100 scale where 0 is no effect and 100 is complete control; read-out: Ducksalad plant response rating
Procedure, shortened: (§2)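 Compound goes directly into floodwater once pots are flooded 3 cm above soil, targeting plants at two leaves; the water depth is then held for the test duration. Plants sit 13–15 d in a greenhouse and are rated visually, 100 denoting complete control.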

[11] = test system: sedge, umbrella (small-flower umbrella sedge, Cyperus difformis); experiment: Test B flooded paddy test; conditions: Cyperus difformis, 250 g ai/ha, Flood; 0 to 100 scale where 0 is no effect and 100 is complete control; read-out: Sedge, Umbrella plant response rating
Procedure, shortened: as §2

rice (Oryra sativa) = experiment: Test B flooded paddy test; conditions: Oryza sativa, 250 g ai/ha, Flood; 0 to 100 scale where 0 is no effect and 100 is complete control; read-out: Rice plant response rating
Procedure, shortened: as §2

[12] = test system: barnyardgrass (Echinochloa crus-galli); experiment: Test B flooded paddy test; conditions: Echinochloa crus-galli, 250 g ai/ha, Flood; 0 to 100 scale where 0 is no effect and 100 is complete control; read-out: Barnyardgrass plant response rating
Procedure, shortened: as §2

[13] = test system: ryegrass, Italian (Italian ryegrass, Lolium multiflorum); experiment: Test A preemergence; conditions: Lolium multiflorum, pre-emergence, 240 h, 0 to 100 scale where 0 is no effect and 100 is complete control, read-out: Ryegrass, Italian plant response rating
Procedure, shortened: as §1

[14] = test system: giant foxtail (Setaria faberii); experiment: Test A preemergence; conditions: Setaria faberi, pre-emergence, 240 h, Preemergence
Procedure, shortened: as §1

Kochia (Kochia scoparia) [15] = experiment: Test A preemergence; conditions: Bassia scoparia, pre-emergence, 240 h, 0 to 100 scale where 0 is no effect and 100 is complete control, read-out: Kochia plant response rating
Procedure, shortened: as §1

[16] = test system: ragweed (common ragweed, Ambrosia elatior); experiment: Test A preemergence; conditions: Ambrosia artemisiifolia, pre-emergence, 240 h, 0 to 100 scale where 0 is no effect and 100 is complete control, read-out: Ragweed plant response rating
Procedure, shortened: as §1

[17] = test system: pigweed (Amaranthus retroflexus); experiment: Test A preemergence; conditions: Amaranthus retroflexus, pre-emergence, 240 h, 0 to 100 scale where 0 is no effect and 100 is complete control, read-out: Pigweed plant response rating
[18] = test system: barnyardgrass (Echinochloa crus-galli); experiment: Test A preemergence; conditions: Echinochloa crus-galli, pre-emergence, 240 h, Preemergence
Procedure, shortened: as §1

[19] = 125 g ai/ha, preemergence, approx. 10 d

CN1C[C@H](c2cccc(C(F)(F)F)c2)[C@@H](C(=O)Nc2cnccc2C(F)(F)F)C1=O [Compound 1066]
pest or weed control at 125 g/ha ([1]; 125 g ai/ha, postemergence, visual injury on 0 to 100 scale (0 no effect, 100 complete control), approx. 10 d, read-out: Galium plant response rating): 50% | pest or weed control at 31 g/ha ([1]; Postemergence, 31 g ai/ha, visual injury after approx. 10 d, 0 to 100 scale, 0 no effect, 100 complete control, read-out: Plant response rating, Galium): 0% | plant injury at 125 g/ha (corn (Zea mays); 125 g ai/ha, postemergence, visual injury on 0 to 100 scale (0 no effect, 100 complete control), approx. 10 d, read-out: Corn plant response rating): 40% | Corn plant response rating (crop injury, 0 = no effect, 100 = complete kill) at 31 g/ha (corn (Zea mays); Postemergence, 31 g ai/ha, visual injury after approx. 10 d, 0 to 100 scale, 0 no effect, 100 complete control): 0% | pest or weed control at 125 g/ha ([2]; 125 g ai/ha, postemergence, visual injury on 0 to 100 scale (0 no effect, 100 complete control), approx. 10 d, read-out: Ryegrass, Italian plant response rating): 30% | pest or weed control at 31 g/ha ([2]; Postemergence, 31 g ai/ha, visual injury after approx. 10 d, 0 to 100 scale, 0 no effect, 100 complete control, read-out: Plant response rating, Ryegrass, Italian): 30% | pest or weed control at 125 g/ha ([3]; 125 g ai/ha, postemergence, visual injury on 0 to 100 scale (0 no effect, 100 complete control), approx. 10 d, read-out: Blackgrass plant response rating): 60% | pest or weed control at 31 g/ha ([3]; Postemergence, 31 g ai/ha, visual injury after approx. 10 d, 0 to 100 scale, 0 no effect, 100 complete control, read-out: Plant response rating, Blackgrass): 0% | plant injury at 125 g/ha ([4]; 125 g ai/ha, postemergence, visual injury on 0 to 100 scale (0 no effect, 100 complete control), approx. 10 d, read-out: Wheat plant response rating): 50% | plant injury at 31 g/ha ([4]; Postemergence, 31 g ai/ha, visual injury after approx. 10 d, 0 to 100 scale, 0 no effect, 100 complete control, read-out: Plant response rating, Wheat): 0% | pest or weed control at 125 g/ha ([5]; 125 g ai/ha, postemergence, visual injury on 0 to 100 scale (0 no effect, 100 complete control), approx. 10 d, read-out: Foxtail, Giant plant response rating): 90% | pest or weed control at 31 g/ha ([5]; Postemergence, 31 g ai/ha, visual injury after approx. 10 d, 0 to 100 scale, 0 no effect, 100 complete control, read-out: Plant response rating, Foxtail, Giant): 70% | pest or weed control at 125 g/ha (Kochia (Kochia scoparia) [6]; 125 g ai/ha, postemergence, visual injury on 0 to 100 scale (0 no effect, 100 complete control), approx. 10 d, read-out: Kochia plant response rating): 0% | pest or weed control at 31 g/ha (Kochia (Kochia scoparia) [6]; Postemergence, 31 g ai/ha, visual injury after approx. 10 d, 0 to 100 scale, 0 no effect, 100 complete control, read-out: Plant response rating, Kochia): 0% | pest or weed control at 125 g/ha ([7]; 125 g ai/ha, postemergence, visual injury on 0 to 100 scale (0 no effect, 100 complete control), approx. 10 d, read-out: Ragweed plant response rating): 0% | pest or weed control at 31 g/ha ([7]; Postemergence, 31 g ai/ha, visual injury after approx. 10 d, 0 to 100 scale, 0 no effect, 100 complete control, read-out: Plant response rating, Ragweed): 0% | pest or weed control at 125 g/ha ([8]; 125 g ai/ha, postemergence, visual injury on 0 to 100 scale (0 no effect, 100 complete control), approx. 10 d, read-out: Pigweed plant response rating): 0% | pest or weed control at 31 g/ha ([8]; Postemergence, 31 g ai/ha, visual injury after approx. 10 d, 0 to 100 scale, 0 no effect, 100 complete control, read-out: Plant response rating, Pigweed): 0% | pest or weed control at 125 g/ha ([9]; 125 g ai/ha, postemergence, visual injury on 0 to 100 scale (0 no effect, 100 complete control), approx. 10 d, read-out: Barnyardgrass plant response rating): 70% | pest or weed control at 31 g/ha ([9]; Postemergence, 31 g ai/ha, visual injury after approx. 10 d, 0 to 100 scale, 0 no effect, 100 complete control, read-out: Plant response rating, Barnyardgrass): 50% | pest or weed control at 250 g/ha [10]: 75% | pest or weed control at 250 g/ha [11]: 0% | pest or weed control at 250 g/ha (rice (Oryra sativa)): 0% | pest or weed control at 250 g/ha [12]: 45% | pest or weed control at 31 g/ha ([13]; 31 g ai/ha, Preemergence): 20% | pest or weed control at 125 g/ha [13, 19]: 50% | pest or weed control at 31 g/ha ([14]; 31 g ai/ha, 0 to 100 scale where 0 is no effect and 100 is complete control, read-out: Foxtail, Giant plant response rating): 100% | pest or weed control at 125 g/ha ([14]; 125 g ai/ha, visual injury rating after approximately 10 d, read-out: Foxtail, Giant plant response rating (0 to 100 scale, 0 is no effect, 100 is complete control)): 100% | pest or weed control at 31 g/ha (Kochia (Kochia scoparia) [15]; 31 g ai/ha, Preemergence): 0% | pest or weed control at 125 g/ha (Kochia (Kochia scoparia) [15]; [19]): 20% | pest or weed control at 31 g/ha ([16]; 31 g ai/ha, Preemergence): 0% | pest or weed control at 125 g/ha [16, 19]: 0% | pest or weed control at 31 g/ha ([17]; 31 g ai/ha, Preemergence): 0% | pest or weed control at 125 g/ha [17, 19]: 20% | pest or weed control at 31 g/ha ([18]; 31 g ai/ha, 0 to 100 scale where 0 is no effect and 100 is complete control, read-out: Barnyardgrass plant response rating): 50% | pest or weed control at 125 g/ha ([18]; 125 g ai/ha, visual injury rating after approximately 10 d, read-out: Barnyardgrass plant response rating (0 to 100 scale, 0 is no effect, 100 is complete control)): 100%
